Patent US11485731B2, “Compounds and methods useful in the treatment of a PRMT5-mediated disorder” (ARGONAUT THERAPEUTICS LIMITED, priority 2017, dated 2022)

Target: human PRMT5/MEP50 (Homo sapiens (Human), UniProt O14744)
Assay: PRMT5 chemiluminescent assay
Assay type: biochemical
Conditions: human PRMT5/MEP50 expressed in HEK293 cells; biotinylated histone peptides; Histone H4 monomethyl R3 antibody; chemiluminescent readout
Description: A PRMT5 chemiluminescent assay was used to measure the IC50 activity of PRMT5 of the compounds of Examples 1A to 7 above. Biotinylated histone peptides were synthesized and attached to 384-well plates. Compound serial dilutions were performed and added to the assay plate. Histone H4 monomethyl R3 antibody was obtained from Abcam. A master mix for each well was prepared and human PRMT5/MEP50 (expressed in HEK293 cells) diluted in assay buffer to a concentration of 5 ng/μL. The reaction was incubated and slowly rotated for 60 minutes at the point of PRMT5/MEP50 addition. The supernatant from the wells was removed and blocking buffer was added to each well and rotated for 10 minutes. The primary antibody was diluted and added to every well for 60 minutes, before it was removed and the wells washed. The horse raddish peroxidase (HRP)-coupled secondary antibody was diluted and added to each well with an incubation time of 30 minutes. The HRP chemiluminescent substrate was added to every well. The plate was read on a Flourstar Omega BMG Labtech instrument (Ortenberg, Germany) and the analysis of IC50 was performed using the Flourstar Omega BMG Labtech software.

Chain of human PRMT5/MEP50 (O14744 whole entry): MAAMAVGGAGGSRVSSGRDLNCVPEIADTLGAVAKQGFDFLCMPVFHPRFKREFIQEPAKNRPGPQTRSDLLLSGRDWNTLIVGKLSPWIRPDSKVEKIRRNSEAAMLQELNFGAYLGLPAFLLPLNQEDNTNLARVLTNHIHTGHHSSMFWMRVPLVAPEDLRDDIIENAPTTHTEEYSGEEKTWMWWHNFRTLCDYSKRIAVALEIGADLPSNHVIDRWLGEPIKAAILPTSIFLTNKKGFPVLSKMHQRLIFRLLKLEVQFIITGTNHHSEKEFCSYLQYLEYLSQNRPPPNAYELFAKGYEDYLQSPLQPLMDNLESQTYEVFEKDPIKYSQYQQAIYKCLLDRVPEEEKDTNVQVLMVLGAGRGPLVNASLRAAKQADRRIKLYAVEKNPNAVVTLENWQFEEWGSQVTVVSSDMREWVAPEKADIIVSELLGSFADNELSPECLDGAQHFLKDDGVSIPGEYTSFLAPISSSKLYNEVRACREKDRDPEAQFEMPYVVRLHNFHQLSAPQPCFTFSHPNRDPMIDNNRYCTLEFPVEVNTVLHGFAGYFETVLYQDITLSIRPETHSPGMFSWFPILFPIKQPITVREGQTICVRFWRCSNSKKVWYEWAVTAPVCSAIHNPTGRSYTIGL
Chain of human PRMT5/MEP50 (Q9BQA1 whole entry partner): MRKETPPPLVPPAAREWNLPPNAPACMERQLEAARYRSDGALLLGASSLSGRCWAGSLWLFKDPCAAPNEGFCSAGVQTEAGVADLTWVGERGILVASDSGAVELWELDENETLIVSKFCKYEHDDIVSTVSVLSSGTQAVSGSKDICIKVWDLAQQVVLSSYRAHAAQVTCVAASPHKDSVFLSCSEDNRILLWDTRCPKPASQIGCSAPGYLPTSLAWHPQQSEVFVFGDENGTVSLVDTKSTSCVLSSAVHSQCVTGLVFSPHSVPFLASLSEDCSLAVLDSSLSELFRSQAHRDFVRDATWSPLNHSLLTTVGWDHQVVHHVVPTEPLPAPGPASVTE

Compound	IC50 [µM]
O=C(NC[C@@H](O)CN1CCc2ccccc2C1)N1CCCc2ccccc21 [Example 1AK, (R)-N-(3-(3,4-dihydroisoquinolin-2(1H)-yl)-2-hydroxypropyl)-3,4-dihydroquinoline-1(2H)-carboxamide]	5.98
O=C(NC[C@H](O)CN1CCc2ccccc2C1)N1CCCC(N2CCOCC2)C1 (stereo partly drawn) [Example 1BW, N-((S)-3-(3,4-dihydroisoquinolin-2(1H)-yl)-2-hydroxypropyl)-3-morpholinopiperidine-1-carboxamide]	2.86
O=C(NC[C@H](O)CN1CCc2ccccc2C1)N1CCC[C@@H](c2ccccc2)C1 (single isomer, unassigned) [Example 5B, (S)-N-((S)-3-(3,4-dihydroisoquinolin-2(1H)-yl)-2-hydroxypropyl)-3-phenylpiperidine-1-carboxamide or (R)-N-((S)-3-(3,4-dihydroisoquinolin-2(1H)-yl)-2-hydroxypropyl)-3-phenylpiperidine-1-carboxamide]	0.599
O=C(NC[C@H](O)CN1CCc2ccccc2C1)N1CC[C@@H](c2ccccc2)C1 [Example 1CI, (S)-N-((S)-3-(3,4-dihydroisoquinolin-2(1H)-yl)-2-hydroxypropyl)-3-phenylpyrrolidine-1-carboxamide]	0.027
O=C(NCC(O)CN1CCc2sccc2C1)N1CCCc2ccccc21 (centres unmarked) [Example 1Y, N-(3-(6,7-dihydrothieno[3,2-c]pyridin-5(4H)-yl)-2-hydroxypropyl)-3,4-dihydroquinoline-1(2H)-carboxamide]	0.236
O=C(NCC(O)CN1CCc2ccccc2C1)N1CC(C(=O)N2C3CCC2COC3)C1 (centres unmarked) [Example 1X, 3-(3-oxa-8-azabicyclo[3.2.1]octane-8-carbonyl)-N-(3-(3,4-dihydroisoquinolin-2(1H)-yl)-2-hydroxypropyl)azetidine-1-carboxamide]	0.376
CC(=O)N1CCCN(C(=O)NC[C@@H](O)CN2CCc3ccccc3C2)CC1 [Example 1BB, (R)-4-acetyl-N-(3-(3,4-dihydroisoquinolin-2(1H)-yl)-2-hydroxypropyl)-1,4-diazepane-1-carboxamide]	51.8
O=C(NCC(O)CN1CCc2ccccc2C1)N1CC(C(=O)N2CCOCC2)C1 (centres unmarked) [Example 1W, N-(3-(3,4-dihydroisoquinolin-2(1H)-yl)-2-hydroxypropyl)-3-(morpholine-4-carbonyl)azetidine-1-carboxamide]	7.39
O=C(NCC(O)CN1CCc2ccccc2C1)N1CCCc2ccccc21 (centres unmarked) [Example 2A, N-(3-(3,4-dihydroisoquinolin-2(1H)-yl)-2-hydroxypropyl)-3,4-dihydroquinoline-1(2H)-carboxamide]	0.087
O=C(NC[C@H](O)CN1CCc2ccccc2C1)N1CCC[C@@H](c2ccccc2)C1 (single isomer, unassigned) [Example 5A, (S)-N-((S)-3-(3,4-dihydroisoquinolin-2(1H)-yl)-2-hydroxypropyl)-3-phenylpiperidine-1-carboxamide or (R)-N-((S)-3-(3,4-dihydroisoquinolin-2(1H)-yl)-2-hydroxypropyl)-3-phenylpiperidine-1-carboxamide]	0.026
O=C(NC[C@H](O)CN1CCc2ccccc2C1)N1CCSC(c2ccccc2)C1 (stereo partly drawn) [Example 1BJ, N-((S)-3-(3,4-dihydroisoquinolin-2(1H)-yl)-2-hydroxypropyl)-2-phenylthiomorpholine-4-carboxamide]	0.108
O=C(NC[C@H](O)CN1CCc2ccccc2C1)N1CCC(N2CCCSCC2)C1 (stereo partly drawn) [Example 1CF, N-((S)-3-(3,4-dihydroisoquinolin-2(1H)-yl)-2-hydroxypropyl)-3-(1,4-thiazepan-4-yl)pyrrolidine-1-carboxamide]	0.376
O=C(NC[C@H](O)CN1CCc2ccccc2C1)N1CCC[C@@H](c2ccccc2)C1 [Example 1AN, (S)-N-((S)-3-(3,4-dihydroisoquinolin-2(1H)-yl)-2-hydroxypropyl)-3-phenylpiperidine-1-carboxamide]	0.014
O=C(NC[C@H](O)CN1CCc2ccccc2C1)N1CCC[C@H](c2ccccn2)C1 (single isomer, unassigned) [Example 5F, (S)-N-((S)-3-(3,4-dihydroisoquinolin-2(1H)-yl)-2-hydroxypropyl)-3-(pyridin-2-yl)piperidine-1-carboxamide or (R)-N-((S)-3-(3,4-dihydroisoquinolin-2(1H)-yl)-2-hydroxypropyl)-3-(pyridin-2-yl)piperidine-1-carboxamide]	0.097
CN(C)C(=O)C1CCN(C(=O)NC[C@H](O)CN2CCc3ccccc3C2)CC1 [Example 1AX, (S)-N^1-(3-(3,4-dihydroisoquinolin-2(1H)-yl)-2-hydroxypropyl)-N^4,N^4-dimethylpiperidine-1,4-dicarboxamide]	0.588
O=C(NC[C@H](O)CN1CCc2ccccc2C1)N1CCS[C@@H](c2ccccc2)C1 (single isomer, unassigned) [Example 5C, (S)-N-((S)-3-(3,4-dihydroisoquinolin-2(1H)-yl)-2-hydroxypropyl)-2-phenylthiomorpholine-4-carboxamide or (R)-N-((S)-3-(3,4-dihydroisoquinolin-2(1H)-yl)-2-hydroxypropyl)-2-phenylthiomorpholine-4-carboxamide]	0.017

Continued, values first:

IC50 [µM]	Compound
1.28	O=C(NC[C@H](O)CN1CCc2ccccc2C1)N1CCCN(S(=O)(=O)c2ccccc2)CC1 [Example 1BM, (S)-N-(3-(3,4-dihydroisoquinolin-2(1H)-yl)-2-hydroxypropyl)-4-(phenylsulfonyl)-1,4-diazepane-1-carboxamide]
213	O=C(OCC(O)CN1CCc2ccccc2C1)N1CCS(=O)(=O)CC1 (centres unmarked) [Example 4N, 3-(3,4-dihydroisoquinolin-2(1H)-yl)-2-hydroxypropyl thiomorpholine-4-carboxylate 1,1-dioxide]
0.077	CS(=O)(=O)N1CCCN(C(=O)NC[C@H](O)CN2CCc3ccccc3C2)CC1 [Example 1AQ, (S)-N-(3-(3,4-dihydroisoquinolin-2(1H)-yl)-2-hydroxypropyl)-4-(methylsulfonyl)-1,4-diazepane-1-carboxamide]
0.208	O=C(NCC(O)CN1CCc2ccccc2C1)N1CCc2ccccc2C1 (centres unmarked) [Example 1I, N-[2-hydroxy-3-(1,2,3,4-tetrahydroisoquinolin-2-yl)propyl]-1,2,3,4-tetrahydroisoquinoline-2-carboxamide]
1.92	O=C(NC[C@H](O)CN1CCc2ccccc2C1)N1CCCC(N2CCN(Cc3ccccc3)CC2)C1 (stereo partly drawn) [Example 1CH, 3-(4-benzylpiperazin-1-yl)-N-((S)-3-(3,4-dihydroisoquinolin-2(1H)-yl)-2-hydroxypropyl)piperidine-1-carboxamide]
7.02	O=C(NC[C@H](O)CN1CCc2ccccc2C1)N1CCCN(C(=O)c2cccs2)CC1 [Example 1AW, (S)-N-(3-(3,4-dihydroisoquinolin-2(1H)-yl)-2-hydroxypropyl)-4-(thiophene-2-carbonyl)-1,4-diazepane-1-carboxamide]
2.39	O=C(NCC(O)CN1CCc2ccccc2C1)N1CCCCCC1 (centres unmarked) [Example 1N, N-[2-hydroxy-3-(1,2,3,4-tetrahydroisoquinolin-2-yl)propyl]azepane-1-carboxamide]
5.6	O=C(NC[C@H](O)CN1CCc2ccccc2C1)N1CCC(F)(F)CC1 [Example 1BF, (S)-N-(3-(3,4-dihydroisoquinolin-2(1H)-yl)-2-hydroxypropyl)-4,4-difluoropiperidine-1-carboxamide]
0.221	O=C(NCC(O)CN1CCc2ccccc2C1)N1CCCC(Nc2ccncc2)C1 (centres unmarked) [Example 1P, N-(3-(3,4-dihydroisoquinolin-2(1H)-yl)-2-hydroxypropyl)-3-(pyridin-4-ylamino)piperidine-1-carboxamide]
33.1	COC(=O)N1CCCN(C(=O)NC[C@@H](O)CN2CCc3ccccc3C2)CC1 [Example 1BC, Methyl (R)-4-((3-(3,4-dihydroisoquinolin-2(1H)-yl)-2-hydroxypropyl)carbamoyl)-1,4-diazepane-1-carboxylate]
0.267	O=C(NCC(O)CN1CCc2ccccc2C1)N1CCCC(Oc2ccccc2)C1 (centres unmarked) [Example 1H, N-[2-hydroxy-3-(1,2,3,4-tetrahydroisoquinolin-2-yl)propyl]-3-phenoxypiperidine-1-carboxamide]
0.342	O=C(NCC(O)CN1CCc2sccc2C1)N1CCc2ccccc2C1 (centres unmarked) [Example 1AA, N-(3-(6,7-dihydrothieno[3,2-c]pyridin-5(4H)-yl)-2-hydroxypropyl)-3,4-dihydroisoquinoline-2(1H)-carboxamide]
0.057	O=C(NC[C@H](O)CN1CCc2ccccc2C1)N1CCCC(c2cccnc2)C1 (stereo partly drawn) [Example 1BV, N-((S)-3-(3,4-dihydroisoquinolin-2(1H)-yl)-2-hydroxypropyl)-3-(pyridin-3-yl)piperidine-1-carboxamide]
0.384	O=C(NCC(O)CN1CCc2sccc2C1)N1CCCC(c2ccccc2)C1 (centres unmarked) [Example 1AC, N-(3-(6,7-dihydrothieno[3,2-c]pyridin-5(4H)-yl)-2-hydroxypropyl)-3-phenylpiperidine-1-carboxamide]
0.749	O=C(NCC(O)CN1CCc2ccsc2C1)N1CCC(c2ccccc2)C1 (centres unmarked) [Example 1Af, N-(3-(4,7-dihydrothieno[2,3-c]pyridin-6(5H)-yl)-2-hydroxypropyl)-3-phenylpyrrolidine-1-carboxamide]
2.22	O=C(OCC(O)CN1CCc2ccccc2C1)N1CC[S+]([O-])CC1 (centres unmarked) [Example 4M, 3-(3,4-dihydroisoquinolin-2(1H)-yl)-2-hydroxypropyl thiomorpholine-4-carboxylate 1-oxide]
